What was measured:
HIV-1 [1] = assay: Antiviral activity: HIV antigen concentration in HIV-1 infected MT4 cells; type: cell-based; settings: MT4 cells (human CD4 cell line), 1, 10 and 100 μM, after 72 hours; FIG. 1
Experimental: (§1) 40H—OPB was added to cultures of growing MT4 cells (a human CD4 cell line). HIV-1, stored in the culture medium at −75° C. was thawed and added in an amount which infected about 1 in 7 cells in each culture. The virus was absorbed to the cells for 2.3 hours at ambient temperature whereafter the cultures were centrifuged at 1200 rpm, the medium was removed, the cells were suspended in fresh growth medium and 40H—OPB was added to concentrations of 1, 10 and 100 μM (diluted in medium from a stock solution of 20 mM in DMSO). After 72 hours the HIV antigen concentration was determined using Abbott's test. By way of comparison phenbutazone (PB) was tested analogously.

mice = assay: Mouse toxicity; type: in vivo
Experimental: 20 g mice were given single doses of 40H—OPB (20 mM in DMSO) intraperitoneally. […] Furthermore, injection of 40H—OPB could be increased to 2000 mg/kg (corresponding to 20 mM in the extracellular fluid) before the mice started to die (6 out of 10 died at 2000 mg/kg).

HIV-1 [2] = assay: Combination antiviral effect in HIV-1 infected MT4 cells; type: cell-based; settings: with AZT, Indinavir, Nevirapin or ddI, FIGS. 2-5
Experimental: as §1
Cell culture experiments were carried out as in Example 12, but in place of 40H—OPB (0-100 μM) was added:
i) 40H—OPB ([…]) with AZT (0-1 μM)
iii) 40H—OPB (0-100 μM) with Nevirapin (0-10 μM)

Compound: CCCCC1(O)C(=O)N(c2ccccc2)N(c2ccc(O)cc2)C1=O (stereo not drawn) [40H—OPB, 4-(1-Butyl)-4-hydroxy-1-(4-hydroxyphenyl)-2-phenyl-3,5-pyrazolidinedione]
- inhibition of virus production (HIV antigen concentration, Abbott's test) (HIV-1 [1]): inhibition of virus production by 40H—OPB at concentrations above the lowest tested
- lethal dose expressed as concentration in the extracellular fluid (mice; mice, corresponding to 2000 mg/kg): 20 mM
- dose reached before the mice started to die (lethal dose) (mice; mice, single dose intraperitoneally): 2000 mg/kg
- factor by which concentrations that effectively inhibit HIV replication in cell cultures are lower than the lethal dose in mice (mice; mouse, in vivo, 2000 mg/kg): up to 200000 times
- mice that died (mice; mouse, in vivo, ip, 2000 mg/kg): 6 out of 10
- anti-HIV effect in combination with other anti-viral agents (HIV-1 [2]): enhanced anti-HIV effect
